System: C57BL/6-Atp7a^mo-br mice (mo-br mice)
Assay: Survival in a mouse model of Menkes disease (mo-br mice)
Assay type: in vivo
Settings: single treatments, FIG. 5
Description: FIG. 5 is a graph showing survival of mo-br mice treated with rAAV9-co-rsATP7A (AAV9) and copper histidinate, untreated (UT), treated with AAV9co alone, or treated with copper histidinate alone.
FIG. 6 is a graph showing survival to weaning (dark gray bars) or prolonged survival (light gray bars) in untreated (UT) mice, mice treated with AAV5-rsATP7A and copper histidinate (AAV5+Cu), AAVrh10-rsATP7A and copper histidinate (AAVrh10+copper), AAV9-rsATP7A and copper (AAV9+Cu), and AAV9 co-rsATP7A and copper (AAV9co+Cu). rsATP7A is reduced-size ATP7A cDNA (native sequence (non-codon-optimized)).
The AAV9 co-rsATP7A described in Example 2 was administered to C57BL/6-Atp7a^mo-br mice (mo-br mice) by intracerebroventricular injection. The mice were injected bilaterally on day two of life with 1.6×10^9 vg in 5 μl of lactated Ringer's solution. Some of the mice were also treated with copper histidinate (15 μg) by subcutaneous injection during the first week of life (5 μg, d4-6). About 70% of the mice treated with combination AAV9 co-rsATP7A and copper histidinate survived at least 100 days (FIG. 5).
Different AAV serotypes were also tested for efficacy in mo-br mice.

Substance: copper histidinate
- survival time (did not survive past): ≤ 28 days

Reference: patent US12173306B2, “Codon-optimized reduced-size ATP7A CDNA and uses for treatment of copper transport disorders” (The United States of America, as represented by the …, priority 2015, dated 2024)
